Consider two molecules from US11597729B2, “Tropomyosin receptor kinase inhibitor, preparation method therefor and use thereof” (JIANGSU VCARE PHARMATECH CO., LTD., priority 2018, dated 2023).

The target in one data set is TrkA (Homo sapiens, UniProt P04629). Kind of data set: Inhibitory activity test for Trk kinases (γ-33P-ATP isotope test), TrkA. The note with it: 33P-ATP 10 μM, 2 h reaction; read-out: Kinase IC50 TrkA. The format is biochemical. The protocol: (§1) Inhibitory Activity Test for Trk Kinases
Sequence of TrkA (P04629 33-796, species assumed): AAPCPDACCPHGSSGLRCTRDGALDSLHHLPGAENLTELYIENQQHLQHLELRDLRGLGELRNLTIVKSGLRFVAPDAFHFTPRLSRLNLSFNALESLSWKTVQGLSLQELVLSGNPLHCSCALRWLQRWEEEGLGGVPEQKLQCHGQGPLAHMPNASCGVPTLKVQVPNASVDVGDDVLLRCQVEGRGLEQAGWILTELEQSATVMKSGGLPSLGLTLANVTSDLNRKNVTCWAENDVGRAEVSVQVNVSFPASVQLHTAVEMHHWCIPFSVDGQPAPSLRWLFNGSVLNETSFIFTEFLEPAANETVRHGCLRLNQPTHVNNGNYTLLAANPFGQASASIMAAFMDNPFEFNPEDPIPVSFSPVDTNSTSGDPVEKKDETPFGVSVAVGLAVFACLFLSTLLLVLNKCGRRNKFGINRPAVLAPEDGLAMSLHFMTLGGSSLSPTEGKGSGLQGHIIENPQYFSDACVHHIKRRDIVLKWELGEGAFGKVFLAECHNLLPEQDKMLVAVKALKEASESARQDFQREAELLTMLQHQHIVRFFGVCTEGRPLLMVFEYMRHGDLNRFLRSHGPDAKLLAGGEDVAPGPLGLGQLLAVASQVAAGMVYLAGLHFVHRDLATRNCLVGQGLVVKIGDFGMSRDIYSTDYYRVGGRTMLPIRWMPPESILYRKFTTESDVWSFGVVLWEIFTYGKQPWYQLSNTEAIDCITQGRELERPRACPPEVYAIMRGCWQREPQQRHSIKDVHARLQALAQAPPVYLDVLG
(§2) In this experiment, the γ-^33P-ATP isotope test was used to test the inhibition effect of a compound on kinases TrkA, TrkB and TrkC, and the half maximal inhibitory concentration IC50 of the inhibitory activity of the compound on the enzymes was obtained.
(§3) A compound was dissolved in 100% DMSO to a particular concentration, and then the resulting solution was gradient-diluted by an automatic loading device to different concentrations of the test samples (DMSO dissolving solutions).
(§4) 3.1. The reaction substrate was diluted using the base reaction buffer;
(§5) 3.2. The kinase was added into the substrate solution and mixed gently and uniformly;
(§6) 3.3. The compounds of different concentrations diluted in 100% DMSO were added into the kinase solution using an automatic loading system, and incubated for 20 min at room temperature;
(§7) 3.4. ^33P-ATP (10 μM, 10 μCi/μl) was added at room temperature to initiate the kinase reaction, and the reaction was carried out for 2 h.
(§8) The reaction solution was subjected to an ion exchange filtration system to remove unreacted ATP and the generated ADP ions during the reaction. Then, the radiometric quantity of ^33P isotope in the substrate was detected.
(§9) The kinase activity in the system with the addition of the inhibitors of different concentrations was calculated from the radiometric quantity, to obtain the inhibitory effect of the compounds with different concentrations on the kinase activity. Fitting was performed using graphpad prism to obtain IC50 values of the compounds for inhibition.

The next data set concerns the target TrkC (Homo sapiens, UniProt Q16288). In words: Inhibitory activity test for Trk kinases (γ-33P-ATP isotope test), TrkC. The format is biochemical. The note with it: 33P-ATP 10 μM, 2 h reaction; read-out: Kinase IC50 TrkC. The protocol: as §1, §2, §3, §4, §5, §6, §7, §8, §9
Another data set relates to BaF3-LMNA-NTRK1. In words: Growth inhibition test, CellTiter-Glo, BaF3-LMNA-NTRK1 cells. The format is cell-based. The note with it: 72 hours incubation, read-out: Cell GI50 BaF3-LMNA-NTRK1. How it is done:
(§10) Growth Inhibition Test for Tel-NTRK1-BaF3 and BaF3-LMNA-NTRK1 Cells
(§11) In this experiment, the CellTiter-Glo cell proliferation fluorescence assay was used to test the growth inhibitory effect of a compound on tel-NTRK1-BaF3 and BaF3-LMNA-NTRK1 transgenic cells, and the half maximal growth inhibitory concentration GI50 of the compound on the cells was obtained.
A compound to be tested was dissolved in DMSO to formulate 10 mM of a mother solution. The mother solution was 3× diluted to 10 mM, 3.333 mM, 1.111 mM, 0.370 mM, 0.123 mM, 0.041 mM, 0.014 mM, 0.005 mM, and 0.002 mM. The prepared solutions were each stored in a 0.5 ml sterilized dorft tube (Corning, USA). […]
(§12) Logarithmic growth phase cells (2000-2500 cells/well) were inoculated in a 12×8 96-well white opaque cell culture plate (Corning 3570, NY, USA) in a volume of 100 μL per well, and a drug was added to the cell plate (0.1 μL/well) at the final concentration of the compound of 10 μM, 3.3 μM, 1.1 μM, 0.37 μM, 0.12 IM, 0.04 μM, 0.014 IM, 0.005 μM, and 0.002 μM (0.4 uL of the drug solution was added to 400 ul of the cell homogenate, and then mixed uniformly, and the resulting mixture was added at 100 ul per well). The plate was incubated at 37° C. in a 5% CO2 incubator for 72 hours, and then 20 μL CellTiter-Glo cell proliferation fluorescence assay reagent was added. […]

In the next data set the target is TrkB (Homo sapiens, UniProt Q16620). In words: Inhibitory activity test for Trk kinases (γ-33P-ATP isotope test), TrkB. The format is biochemical. The note with it: 33P-ATP 10 μM, 2 h reaction; read-out: Kinase IC50 TrkB. The protocol: as §1, §2, §3, §4, §5, §6, §7, §8, §9
Sequence of TrkB (Q16620 32-822, species assumed): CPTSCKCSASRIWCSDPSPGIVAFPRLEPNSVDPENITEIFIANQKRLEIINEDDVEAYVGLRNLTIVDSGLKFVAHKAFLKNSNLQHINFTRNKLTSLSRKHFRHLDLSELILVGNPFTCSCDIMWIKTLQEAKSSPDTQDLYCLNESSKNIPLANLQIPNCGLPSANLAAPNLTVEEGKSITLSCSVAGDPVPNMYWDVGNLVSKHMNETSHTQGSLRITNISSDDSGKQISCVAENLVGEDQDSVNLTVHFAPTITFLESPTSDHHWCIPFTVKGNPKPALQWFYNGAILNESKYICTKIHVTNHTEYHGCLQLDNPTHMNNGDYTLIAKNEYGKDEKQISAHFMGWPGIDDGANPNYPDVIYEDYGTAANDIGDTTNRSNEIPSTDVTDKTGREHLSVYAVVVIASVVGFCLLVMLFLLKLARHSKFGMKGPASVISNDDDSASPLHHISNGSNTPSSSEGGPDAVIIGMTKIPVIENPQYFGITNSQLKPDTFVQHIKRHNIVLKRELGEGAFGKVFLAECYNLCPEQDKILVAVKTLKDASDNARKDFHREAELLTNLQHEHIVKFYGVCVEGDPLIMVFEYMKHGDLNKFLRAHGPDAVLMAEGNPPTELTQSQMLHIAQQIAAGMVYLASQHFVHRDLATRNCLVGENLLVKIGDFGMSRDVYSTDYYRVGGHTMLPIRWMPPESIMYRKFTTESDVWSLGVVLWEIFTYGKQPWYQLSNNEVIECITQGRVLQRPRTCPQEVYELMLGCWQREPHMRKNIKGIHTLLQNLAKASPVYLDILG
The next data set relates to BaF3-tel-NTRK1. In words: Growth inhibition test, CellTiter-Glo, tel-NTRK1-BaF3 cells. The format is cell-based. The note with it: 72 hours incubation, read-out: Cell GI50 BaF3-tel-NTRK1. The protocol: as §10, §11
A compound to be tested was dissolved in DMSO to formulate 10 mM of a mother solution. The mother solution was 3× diluted to 10 mM, 3.333 mM, 1.111 mM, 0.370 mM, 0.123 mM, 0.041 mM, 0.014 mM, 0.005 mM, and 0.002 mM. The prepared solutions were each stored in a 0.5 ml sterilized dorft tube (Corning, USA). In addition, an equal volume of DMSO solvent was used as a blank control. With 10 concentration gradients, the plate was stored in vacuum at −20° C.
The tel-NTRK1-BaF3 and BaF3-LMNA-NTRK1 cell lines were cultured with RPMI 1640 (Corning, N.Y., USA)+10% fetal bovine serum (Gibico, Invitrogen, USA). After the cells were thawed, they were cultured for two generations to be tested.
as §12, with “added. The plate was allowed to stand for 10 min, and read in the Envision Plate-Reader.” for “added.”
A corresponding […] value RLU of each well was obtained by reading in the Envision Plate-reader. […]
The biochemical activity of the compounds of the present invention was determined by the above experiment, and the measured GI50 values are shown in table 2: […]

Data set [1] can be described thus: Metabolic stability in human liver microsomes. Format: in vitro ADME. The note with it: for Remaining % (60 min) / microsomal CLint at 1 μmol/L: human liver microsomes 0.5 mg/mL, compound 1 μmol/L; for Remaining % (60 min): 37° C.; for Negative control Remaining % (60 min): human liver microsomes, negative control incubation; for half-life at 1 μmol/L: human, liver microsomes; for half-life at 1 μmol/L / microsomal CLint at 1 μmol/L: pH 7.4; for microsomal CLint at 1 μmol/L: read-out: Clint (μL/min/mg protein). The protocol:
Testing on Metabolic Stability of Compounds in Human Liver Microsomes
The total volume of an incubation system was 250 μL, and 50 mmol/L PBS buffer (pH=7.4) was used to prepare incubation solutions of liver microsomes from various species with a protein concentration of 0.5 mg/mL. Before the start of the incubation, 2.5 μL of a 100 μmol/L compound to be tested was mixed with 197.5 μL of the above incubation solution, pre-incubated in a 37° C. water bath for 5 min, and then added with a 50 μL reducing coenzyme II solution (5 mmol/L) that was likewise pre-incubated for 5 min to start the reaction (in the reaction system, the protein content of liver microsomes from various species was 0.5 g/L, and the final concentration of the compound to be tested was 1 μmol/L), incubated in a 37° C. water bath with shaking, and taken out at 0, 5, 15, 30, and 60 min. 600 μL of a methanol solution of mixed positive and negative internal standards with internal standards Terfenadine (positive ion internal standard, 25 ng/mL) and Tolbutamide (negative ion internal standard, 50 ng/mL) was immediately added to terminate the reaction. The incubation solution after termination was shaken for 2 min and centrifuged (4° C., 16000 r/min) for 10 min, and the supernatant was taken for LC-MS/MS detection to quantitatively analyze the remaining amount of the parent drug. (DMSO<0.1%).
The concentration of the compound at 0 min incubation was regarded as 100%, and the concentrations at other incubation time points were converted into the remaining percentages. The natural logarithm of the remaining percentage at each time point was linearly regressed against the incubation time, and the slope k was calculated. According to the formula T1/2=−0.693/k, the in vitro half-life was calculated. Clearance in liver microsomes (CLint (μL/min/mg protein)=Ln (2)*1000/T1/2 (min)/Protein Conc(mg/ml)).
Test data of metabolic stability of the compounds of the present invention in human liver microsomes are listed in detail in table 3: […]

Structures are written as SMILES.

Sequence of TrkC (Q16288 32-839, species assumed): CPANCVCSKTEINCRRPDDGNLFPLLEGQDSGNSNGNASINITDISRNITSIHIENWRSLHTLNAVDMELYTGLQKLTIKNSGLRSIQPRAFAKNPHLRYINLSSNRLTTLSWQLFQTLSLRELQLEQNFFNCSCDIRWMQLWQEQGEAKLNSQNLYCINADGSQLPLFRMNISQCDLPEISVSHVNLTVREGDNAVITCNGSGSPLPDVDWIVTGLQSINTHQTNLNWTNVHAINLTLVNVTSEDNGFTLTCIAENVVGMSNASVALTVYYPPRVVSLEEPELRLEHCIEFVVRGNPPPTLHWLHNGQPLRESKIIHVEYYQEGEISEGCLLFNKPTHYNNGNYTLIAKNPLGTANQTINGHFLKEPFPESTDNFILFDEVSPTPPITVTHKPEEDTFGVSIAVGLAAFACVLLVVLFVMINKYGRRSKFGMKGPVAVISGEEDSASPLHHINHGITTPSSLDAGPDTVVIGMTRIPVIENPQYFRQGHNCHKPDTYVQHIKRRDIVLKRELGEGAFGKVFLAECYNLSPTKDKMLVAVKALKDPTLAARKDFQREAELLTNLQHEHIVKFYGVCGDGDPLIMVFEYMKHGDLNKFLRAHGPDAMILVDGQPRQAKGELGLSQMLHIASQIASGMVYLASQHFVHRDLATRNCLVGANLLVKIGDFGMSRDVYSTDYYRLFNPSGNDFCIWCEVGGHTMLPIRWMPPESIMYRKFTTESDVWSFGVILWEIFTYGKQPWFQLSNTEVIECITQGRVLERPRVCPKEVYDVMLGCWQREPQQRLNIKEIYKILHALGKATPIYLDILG

In the case of `O=C1NN(C2CC2)CCc2ncc(F)cc2[C@H]2CCCN2c2ccn3ncc1c3n2` [Example 1, (R,I^3E,I^4E)-6-cyclopropyl-3^5-fluoro-6,7-diazepine-1(5,3)-pyrazolo[1,5-a]pyrimidine-3(3,2)-pyridine-2(1,2)-pyrrolidine cyclooctane-8-one], the IC50 worked out at 4.23 nM at TrkA, 0.25 nM on TrkC and 0.57 nM at TrkB. Also, the GI50 stood at 15.1 nM with BaF3-LMNA-NTRK1 and 12 nM with BaF3-tel-NTRK1. Also, the “Remaining % (60 min)” value in data set [1] was 52.26%. The “Negative control Remaining % (60 min)” value in data set [1] is 98.1%. The molecule also had a half-life at 1 μmol/L in data set [1] of 1.11 h. Moreover, the microsomal CLint at 1 μmol/L in data set [1] was found to be 20.8 µL/min/mg.

With `O=C(Nc1cnn2ccc(N3CCC[C@@H]3c3cc(F)ccc3F)nc12)N1CC[C@H](O)C1` [LOXO-101, reference compound], the GI50 in the data set on BaF3-LMNA-NTRK1 is 35.7 nM. Further, in the data set with BaF3-tel-NTRK1, the GI50 turned out to be 24.6 nM. In data set [1], the “Remaining % (60 min)” value stood at 47.78%, the “Negative control Remaining % (60 min)” value was determined as 95.9%, the half-life at 1 μmol/L came out at 0.987 h and the microsomal CLint at 1 μmol/L was 23.4 µL/min/mg.
